Measured values: PubChem BioAssay AID1259407 (Chemical Carcinogenesis Research Information System (CCRIS), 2018)
Active and inactive are the calls of the source. No rule for the calls is given here.

Test system: CCRIS mutagenicity, Ames/micronucleus/aberration tests
Experiment: CCRIS mutagenicity studies
[1] = Test System: AMES SALMONELLA TYPHIMURIUM, Strain/Indicator: TA98, Metabolic Activation: NONE, Method: PREINCUBATION
[2] = Test System: AMES SALMONELLA TYPHIMURIUM, Strain/Indicator: TA100, Metabolic Activation: NONE, Method: PREINCUBATION
[3] = Test System: AMES SALMONELLA TYPHIMURIUM, Strain/Indicator: TA1535, Metabolic Activation: NONE, Method: PREINCUBATION
[4] = Test System: AMES SALMONELLA TYPHIMURIUM, Strain/Indicator: TA1537, Metabolic Activation: NONE, Method: PREINCUBATION

How did the mutagenic call (Test System: AMES SALMONELLA TYPHIMURIUM, Strain/Indicator: TA97, Metabolic Activation: HAMSTER, LIVER, S-9, AROCLOR 1254 (10%), Method: PREINCUBATION) turn out when `CC(C)CCCCCOC(=O)C[S][Sn]([CH3])([S]CC(=O)OCCCCCC(C)C)[S]CC(=O)OCCCCCC(C)C` was run?
The mutagenic call was “inactive; negative”.

What about the mutagenic call (Test System: AMES SALMONELLA TYPHIMURIUM, Strain/Indicator: TA97, Metabolic Activation: HAMSTER, LIVER, S-9, AROCLOR 1254 (30%), Method: PREINCUBATION) of the same molecule?
Its mutagenic call is “inactive; negative”.

What about the mutagenic call (Test System: AMES SALMONELLA TYPHIMURIUM, Strain/Indicator: TA97, Metabolic Activation: NONE, Method: PREINCUBATION) of the same molecule?
The mutagenic call was “inactive; negative”.

And the mutagenic call (Test System: AMES SALMONELLA TYPHIMURIUM, Strain/Indicator: TA97, Metabolic Activation: RAT, LIVER, S-9, AROCLOR 1254 (10%), Method: PREINCUBATION)?
Its mutagenic call is “inactive; negative”.

What about the mutagenic call (Test System: AMES SALMONELLA TYPHIMURIUM, Strain/Indicator: TA97, Metabolic Activation: RAT, LIVER, S-9, AROCLOR 1254 (30%), Method: PREINCUBATION) of the same molecule?
The mutagenic call was “inactive; negative”.

What about the mutagenic call (Test System: AMES SALMONELLA TYPHIMURIUM, Strain/Indicator: TA98, Metabolic Activation: HAMSTER, LIVER, S-9, AROCLOR 1254 (10 OR 30%), Method: PREINCUBATION) of the same molecule?
The mutagenic call was “inactive; negative”.

What about the mutagenic call [1] of the same molecule?
The mutagenic call was “inactive; negative”.

What about the mutagenic call (Test System: AMES SALMONELLA TYPHIMURIUM, Strain/Indicator: TA98, Metabolic Activation: RAT, LIVER, S-9, AROCLOR 1254 (10 OR 30%), Method: PREINCUBATION) of the same molecule?
The mutagenic call was “inactive; negative”.

What about the mutagenic call (Test System: AMES SALMONELLA TYPHIMURIUM, Strain/Indicator: TA100, Metabolic Activation: HAMSTER, LIVER, S-9, AROCLOR 1254 (10 OR 30%), Method: PREINCUBATION) of the same molecule?
The mutagenic call was “inactive; negative”.

And the mutagenic call [2]?
The mutagenic call was “inactive; negative”.

What about the mutagenic call (Test System: AMES SALMONELLA TYPHIMURIUM, Strain/Indicator: TA100, Metabolic Activation: RAT, LIVER, S-9, AROCLOR 1254 (10 OR 30%), Method: PREINCUBATION) of the same molecule?
The mutagenic call was “inactive; negative”.

What about the mutagenic call (Test System: AMES SALMONELLA TYPHIMURIUM, Strain/Indicator: TA1535, Metabolic Activation: HAMSTER, LIVER, S-9, AROCLOR 1254 (10%), Method: PREINCUBATION) of the same molecule?
The mutagenic call was “inactive; negative”.

What about the mutagenic call (Test System: AMES SALMONELLA TYPHIMURIUM, Strain/Indicator: TA1535, Metabolic Activation: HAMSTER, LIVER, S-9, AROCLOR 1254 (30%), Method: PREINCUBATION) of the same molecule?
The mutagenic call was “inactive; negative”.

And the mutagenic call [3]?
Its mutagenic call is “inactive; negative”.

And the mutagenic call (Test System: AMES SALMONELLA TYPHIMURIUM, Strain/Indicator: TA1535, Metabolic Activation: RAT, LIVER, S-9, AROCLOR 1254 (10%), Method: PREINCUBATION)?
Its mutagenic call is “inactive; negative”.

And the mutagenic call (Test System: AMES SALMONELLA TYPHIMURIUM, Strain/Indicator: TA1535, Metabolic Activation: RAT, LIVER, S-9, AROCLOR 1254 (30%), Method: PREINCUBATION)?
Its mutagenic call is “inactive; negative”.

What about the mutagenic call (Test System: AMES SALMONELLA TYPHIMURIUM, Strain/Indicator: TA1537, Metabolic Activation: HAMSTER, LIVER, S-9, AROCLOR 1254 (30%), Method: PREINCUBATION) of the same molecule?
Its mutagenic call is “inactive; negative”.

And the mutagenic call [4]?
The mutagenic call was “inactive; negative”.

What about the mutagenic call (Test System: AMES SALMONELLA TYPHIMURIUM, Strain/Indicator: TA1537, Metabolic Activation: RAT, LIVER, S-9, AROCLOR 1254 (30%), Method: PREINCUBATION) of the same molecule?
Its mutagenic call is “inactive; negative”.

What does the source list for `C[C@@H](O)[C@H]1C(=O)N2C(C(=O)O)=C([C@H]3CCCO3)S[C@H]12`?
mutagenic call [1]: inactive; negative; mutagenic call (Test System: AMES SALMONELLA TYPHIMURIUM, Strain/Indicator: TA98, Metabolic Activation: S-9, Method: PREINCUBATION): inactive; negative; mutagenic call [2]: inactive; negative; mutagenic call (Test System: AMES SALMONELLA TYPHIMURIUM, Strain/Indicator: TA100, Metabolic Activation: S-9, Method: PREINCUBATION): inactive; negative; mutagenic call [3]: inactive; negative; mutagenic call (Test System: AMES SALMONELLA TYPHIMURIUM, Strain/Indicator: TA1535, Metabolic Activation: S-9, Method: PREINCUBATION): inactive; negative; mutagenic call [4]: inactive; negative; mutagenic call (Test System: AMES SALMONELLA TYPHIMURIUM, Strain/Indicator: TA1537, Metabolic Activation: S-9, Method: PREINCUBATION): inactive; negative; mutagenic call (Test System: E.COLI, Strain/Indicator: WP2 UVRA, Metabolic Activation: NONE, Method: PREINCUBATION): inactive; negative; mutagenic call (Test System: E.COLI, Strain/Indicator: WP2 UVRA, Metabolic Activation: S-9, Method: PREINCUBATION): inactive; negative

`ClCc1ccc(Cl)cc1` was tested. Which mutagenic call (End Point: In vitro chromosomal aberrations, Test System: Chinese hamster lung (CHL/IU) cells, Metabolic Activation: Rat, Liver, S9, Phenobarbital and 5,6-benzoflavone) did it give?
Its mutagenic call is “active; positive (structural changes and ploidy). precipitation in the culture medium at”.

And the mutagenic call [1]?
The mutagenic call was “inactive; negative”.

What about the mutagenic call (Test System: AMES SALMONELLA TYPHIMURIUM, Strain/Indicator: TA98, Metabolic Activation: RAT LIVER S-9, PHENOBARBITAL AND BETA-NAPHTHOFLAVONE, Method: PREINCUBATION) of the same molecule?
The mutagenic call was “inactive; negative”.

What about the mutagenic call [2] of the same molecule?
Its mutagenic call is “inactive; negative”.

And the mutagenic call (Test System: AMES SALMONELLA TYPHIMURIUM, Strain/Indicator: TA100, Metabolic Activation: NONE, Method: STANDARD PLATE)?
The mutagenic call was “inactive; negative”.

And the mutagenic call (Test System: AMES SALMONELLA TYPHIMURIUM, Strain/Indicator: TA100, Metabolic Activation: RAT LIVER S-9, PHENOBARBITAL AND BETA-NAPHTHOFLAVONE, Method: PREINCUBATION)?
The mutagenic call was “inactive; negative”.

What about the mutagenic call (Test System: AMES SALMONELLA TYPHIMURIUM, Strain/Indicator: TA102, Metabolic Activation: NONE, Method: PREINCUBATION) of the same molecule?
The mutagenic call was “inactive; negative”.

And the mutagenic call (Test System: AMES SALMONELLA TYPHIMURIUM, Strain/Indicator: TA102, Metabolic Activation: RAT LIVER S-9, PHENOBARBITAL AND BETA-NAPHTHOFLAVONE, Method: PREINCUBATION)?
The mutagenic call was “inactive; negative”.

And the mutagenic call (Test System: AMES SALMONELLA TYPHIMURIUM, Strain/Indicator: TA104, Metabolic Activation: NONE, Method: PREINCUBATION)?
The mutagenic call was “inactive; negative”.

What about the mutagenic call (Test System: AMES SALMONELLA TYPHIMURIUM, Strain/Indicator: TA104, Metabolic Activation: RAT LIVER S-9, PHENOBARBITAL AND BETA-NAPHTHOFLAVONE, Method: PREINCUBATION) of the same molecule?
Its mutagenic call is “inactive; negative”.

And the mutagenic call [3]?
The mutagenic call was “inactive; negative”.

What about the mutagenic call (Test System: AMES SALMONELLA TYPHIMURIUM, Strain/Indicator: TA1535, Metabolic Activation: RAT LIVER S-9, PHENOBARBITAL AND BETA-NAPHTHOFLAVONE, Method: PREINCUBATION) of the same molecule?
The mutagenic call was “inactive; negative”.

And the mutagenic call [4]?
The mutagenic call was “inactive; negative”.

What about the mutagenic call (Test System: AMES SALMONELLA TYPHIMURIUM, Strain/Indicator: TA1537, Metabolic Activation: RAT LIVER S-9, PHENOBARBITAL AND BETA-NAPHTHOFLAVONE, Method: PREINCUBATION) of the same molecule?
Its mutagenic call is “inactive; negative”.

What about the mutagenic call (Test System: E.COLI, Strain/Indicator: WP2UVRA/PKM101, Metabolic Activation: NONE, Method: PREINCUBATION) of the same molecule?
Its mutagenic call is “inactive; negative”.

And the mutagenic call (Test System: E.COLI, Strain/Indicator: WP2UVRA/PKM101, Metabolic Activation: RAT LIVER S-9, PHENOBARBITAL AND BETA-NAPHTHOFLAVONE, Method: PREINCUBATION)?
The mutagenic call was “inactive; negative”.

What about the mutagenic call (Test System: E.COLI, Strain/Indicator: WP2UVRA, Metabolic Activation: NONE, Method: PREINCUBATION) of the same molecule?
Its mutagenic call is “inactive; negative”.

And the mutagenic call (Test System: E.COLI, Strain/Indicator: WP2UVRA, Metabolic Activation: RAT LIVER S-9, PHENOBARBITAL AND BETA-NAPHTHOFLAVONE, Method: PREINCUBATION)?
The mutagenic call was “inactive; negative”.

Which mutagenic call [1] does the source give for `CCC(=O)N(O)c1ccc(/C=C/c2ccccc2)cc1` here?
The mutagenic call was “inactive; negative”.

What about the mutagenic call (Test System: AMES SALMONELLA TYPHIMURIUM, Strain/Indicator: TA98, Metabolic Activation: RAT, LIVER, CYTOSOL, Method: PREINCUBATION) of the same molecule?
The mutagenic call was “active; positive”.

And the mutagenic call (Test System: AMES SALMONELLA TYPHIMURIUM, Strain/Indicator: TA98, Metabolic Activation: RAT, LIVER, MICROSOMES, Method: PREINCUBATION)?
The mutagenic call was “active; positive”.
